In brackets after ≈: the same amount, converted by molar mass.
Tests used:
[1] = system: Staphylococcus epidermidis; experiment: Antibacterial activity against methicillin-sensitive Staphylococcus epidermidis ATCC 12228 by agar method; format: functional
[2] = system: Staphylococcus epidermidis; experiment: Antibacterial activity against methicillin-resistant Staphylococcus epidermidis 16-5 by agar method; format: functional
Staphylococcus aureus [3] = experiment: Antibacterial activity against methicillin-sensitive Staphylococcus aureus ATCC 29213 by agar method; format: functional
Staphylococcus aureus [4] = experiment: Antibacterial activity against methicillin-resistant Staphylococcus aureus ATCC 33591 by agar method; format: functional
Enterococcus faecalis [5] = experiment: Antibacterial activity against Vancomycin-sensitive Enterococcus faecalis ATCC 29212 by agar method; format: functional
Enterococcus faecalis [6] = experiment: Antibacterial activity against vancomycin-resistant Enterococcus faecalis ATCC 51299 by agar method; format: functional
Escherichia coli [7] = experiment: Antibacterial activity against ESBLs positive Escherichia coli ATCC 35218 by agar method; format: functional
Escherichia coli [8] = experiment: Antibacterial activity against ESBLs negative Escherichia coli ATCC 25922 by agar method; format: functional
Escherichia coli [9] = experiment: Antibacterial activity against NDM-1 positive Escherichia coli ATCC 2469 by agar method; format: functional
Acinetobacter baumannii = experiment: Antibacterial activity against carbapenem-resistant Acinetobacter baumannii 16-33 by agar method; format: functional
A549 = experiment: Cytotoxicity against human A549 cells; format: cell-based

| SMILES | MIC [1] | MIC [2] | MIC (Staphylococcus aureus [3]) | MIC (Staphylococcus aureus [4]) | MIC (Enterococcus faecalis [5]) | MIC (Enterococcus faecalis [6]) | MIC (Escherichia coli [7]) | MIC (Escherichia coli [8]) | MIC (Escherichia coli [9]) | MIC (Acinetobacter baumannii) | IC50 (A549) |
| --- | --- | --- | --- | --- | --- | --- | --- | --- | --- | --- | --- |
| O=C(/C=C/c1ccc2ccccc2n1)c1ccncc1 | 32 µg/mL (≈ 123 µM) | 32 µg/mL (≈ 123 µM) | 32 µg/mL (≈ 123 µM) | 32 µg/mL (≈ 123 µM) | 32 µg/mL (≈ 123 µM) | 32 µg/mL (≈ 123 µM) | > 32 µg/mL | > 32 µg/mL | > 32 µg/mL | > 32 µg/mL |  |
| O=C(/C=C/c1cnc2ccccc2c1)c1ccncc1 | 8 µg/mL (≈ 30.7 µM) | 8 µg/mL (≈ 30.7 µM) | 8 µg/mL (≈ 30.7 µM) | 8 µg/mL (≈ 30.7 µM) | 32 µg/mL (≈ 123 µM) | 16 µg/mL (≈ 61.5 µM) | > 128 µg/mL | > 128 µg/mL | > 128 µg/mL | 128 µg/mL (≈ 492 µM) |  |
| O=C(/C=C/c1cnc2ccccc2c1)c1cccnc1 | 16 µg/mL (≈ 61.5 µM) | 32 µg/mL (≈ 123 µM) | 16 µg/mL (≈ 61.5 µM) | 32 µg/mL (≈ 123 µM) | 32 µg/mL (≈ 123 µM) | 32 µg/mL (≈ 123 µM) | > 128 µg/mL | > 128 µg/mL | > 128 µg/mL | 128 µg/mL (≈ 492 µM) |  |
| O=C(/C=C/c1ccc2ccccc2c1)c1cccnc1 | > 128 µg/mL | > 128 µg/mL | > 128 µg/mL | > 128 µg/mL | > 128 µg/mL | > 128 µg/mL | > 128 µg/mL | > 128 µg/mL | > 128 µg/mL | > 128 µg/mL |  |
| O=C(/C=C/c1cccnc1)c1ccc2ccccc2c1 | 4 µg/mL (≈ 15.4 µM) | 16 µg/mL (≈ 61.7 µM) | 8 µg/mL (≈ 30.9 µM) | 8 µg/mL (≈ 30.9 µM) | > 128 µg/mL | > 128 µg/mL | > 128 µg/mL | > 128 µg/mL | > 128 µg/mL | > 128 µg/mL |  |
| O=C(/C=C/c1ccncc1)c1ccc2ccccc2c1 | 4 µg/mL (≈ 15.4 µM) | 8 µg/mL (≈ 30.9 µM) | 8 µg/mL (≈ 30.9 µM) | 4 µg/mL (≈ 15.4 µM) | > 128 µg/mL | > 128 µg/mL | > 128 µg/mL | > 128 µg/mL | > 128 µg/mL | > 128 µg/mL |  |
| O=C(/C=C/c1ccc2ccc(C(F)(F)F)cc2n1)c1ccccn1 | 4 µg/mL (≈ 12.2 µM) | 4 µg/mL (≈ 12.2 µM) | 1 µg/mL (≈ 3.05 µM) | 2 µg/mL (≈ 6.09 µM) | > 128 µg/mL | 128 µg/mL (≈ 390 µM) | > 128 µg/mL | > 128 µg/mL | > 128 µg/mL | 128 µg/mL (≈ 390 µM) | 10.2 µM |
| O=C(/C=C/c1ccc2ccc(C(F)(F)F)cc2n1)c1cccnc1 | 1 µg/mL (≈ 3.05 µM) | 2 µg/mL (≈ 6.09 µM) | 1 µg/mL (≈ 3.05 µM) | 1 µg/mL (≈ 3.05 µM) | 4 µg/mL (≈ 12.2 µM) | 4 µg/mL (≈ 12.2 µM) | > 32 µg/mL | > 32 µg/mL | > 32 µg/mL | > 32 µg/mL | 9.8 µM |
| O=C(/C=C/c1ccc2ccccc2n1)c1ccc2c(c1)OCO2 | > 128 µg/mL | > 128 µg/mL | > 128 µg/mL | > 128 µg/mL | > 128 µg/mL | > 128 µg/mL | > 128 µg/mL | > 128 µg/mL | > 128 µg/mL | > 128 µg/mL |  |
| O=C(/C=C/c1ccc2ccc(C(F)(F)F)cc2n1)c1ccc(O)c(O)c1 | 16 µg/mL (≈ 44.5 µM) | 16 µg/mL (≈ 44.5 µM) | 32 µg/mL (≈ 89.1 µM) | 32 µg/mL (≈ 89.1 µM) | > 128 µg/mL | > 128 µg/mL | > 128 µg/mL | > 128 µg/mL | > 128 µg/mL | > 128 µg/mL |  |
| O=C(/C=C/c1ccc2c(C(F)(F)F)cccc2n1)c1ccncc1 | 2 µg/mL (≈ 6.09 µM) | 4 µg/mL (≈ 12.2 µM) | 1 µg/mL (≈ 3.05 µM) | 1 µg/mL (≈ 3.05 µM) | > 128 µg/mL | > 128 µg/mL | > 128 µg/mL | > 128 µg/mL | > 128 µg/mL | 128 µg/mL (≈ 390 µM) | 45.4 µM |
| O=C(/C=C/c1ccccn1)c1ccc2ccc(C(F)(F)F)cc2n1 | 2 µg/mL (≈ 6.09 µM) | 4 µg/mL (≈ 12.2 µM) | 4 µg/mL (≈ 12.2 µM) | 2 µg/mL (≈ 6.09 µM) | 32 µg/mL (≈ 97.5 µM) | > 32 µg/mL | > 32 µg/mL | > 32 µg/mL | > 32 µg/mL | > 32 µg/mL | 11.2 µM |
| O=C(/C=C/c1ccc2c(C(F)(F)F)cccc2n1)c1ccccn1 | 2 µg/mL (≈ 6.09 µM) | 2 µg/mL (≈ 6.09 µM) | 1 µg/mL (≈ 3.05 µM) | 1 µg/mL (≈ 3.05 µM) | > 128 µg/mL | > 128 µg/mL | > 128 µg/mL | > 128 µg/mL | > 128 µg/mL | 128 µg/mL (≈ 390 µM) | 43.1 µM |
| COCOc1ccc(C(=O)/C=C/c2ccc3ccccc3n2)cc1OCOC | 4 µg/mL (≈ 10.5 µM) | 8 µg/mL (≈ 21.1 µM) | 8 µg/mL (≈ 21.1 µM) | 8 µg/mL (≈ 21.1 µM) | > 128 µg/mL | > 128 µg/mL | > 128 µg/mL | > 128 µg/mL | > 128 µg/mL | > 128 µg/mL |  |
| O=C(/C=C/c1ccc2ncccc2c1)c1ccccn1 | 8 µg/mL (≈ 30.7 µM) | 8 µg/mL (≈ 30.7 µM) | 8 µg/mL (≈ 30.7 µM) | 8 µg/mL (≈ 30.7 µM) | 32 µg/mL (≈ 123 µM) | 32 µg/mL (≈ 123 µM) | > 128 µg/mL | > 128 µg/mL | > 128 µg/mL | 128 µg/mL (≈ 492 µM) |  |

— ChEMBL document CHEMBL4814028, “Design, synthesis, and antibacterial evaluation of PFK-158 derivatives as potent agents against drug-resistant bacteria” (Bioorg Med Chem Lett, 2021)
